These results are taken from the supplement of paper PMC12613149.

Series [1] in a line: collision cross section (TIMS, N2 drift gas) of the primary ion; higher = larger gas-phase ion size. The protocol:
(§1)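 Reference mixture of environmental contaminants analysed by RP-LC (BEH C18, 50 °C; ESI+ with water/MeOH plus formic acid and ammonium formate, ESI- with ammonium bicarbonate) coupled to a timsTOF Pro 2 with trapped ion mobility in nitrogen (ramp/accumulation 100 ms). CCS was calibrated with Agilent tune mix (CCS compendium) and averaged over five injections at 0.5-500 ng/mL. The table reports the lowest-CCS (putative monomer) peak; retention times are on the same gradient.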

Series [2] in a line: reversed-phase LC retention time (C18, 15 min MeOH gradient); higher = more hydrophobic / later elution. The protocol: as §1
[3] abbreviates: ionization mode: ESI+, ion species: [M+H]+.
[4] abbreviates: ionization mode: ESI-, ion species: [M-H]-.

On to `CC(C)(C)c1cc(CCC(=O)NCCCCCCNC(=O)CCc2cc(C(C)(C)C)c(O)c(C(C)(C)C)c2)cc(C(C)(C)C)c1O`, for which the values for the collision cross section in series [1] (setting [3]) and in series [1] (setting [4]) were 263.68 Å² and 254.68 Å², respectively. Moreover, the figures for the “reversed-phase LC retention time” value in series [2] (setting [3]) and in series [2] (setting [4]) were 17.8 min and 18.3 min, respectively.
On to `Cc1cccc(C)c1NC(=O)CS(=O)(=O)O`, for which the collision cross section was 152.57 Å² in series [1] (setting [3]) and 149.99 Å² in series [1] (setting [4]). For the same compound, the “reversed-phase LC retention time” value in series [2] (setting [3]) stood at 7.36 min; in series [2] (setting [4]) it was 7.04 min.
`CCc1cccc(C)c1N(C(=O)C(=O)O)C(C)C(=O)O` (stereo not given) showed a collision cross section in series [1] (setting [4]) of 159.41 Å². The “reversed-phase LC retention time” value in series [2] (setting [4]) came out at 7.53 min.
In series [1] (setting [4]), `CCc1cccc(C)c1N(C(=O)CS(=O)(=O)O)[C@@H](C)C(=O)O` showed a collision cross section of 167.47 Å². Moreover, the “reversed-phase LC retention time” value in series [2] (setting [4]) was found to be 8.5 min.
`CCc1cccc(C)c1NC(=O)CS(=O)(=O)O`: the results for the collision cross section in series [1] (setting [3]) and in series [1] (setting [4]) were 157.12 Å² and 155.17 Å², respectively. The “reversed-phase LC retention time” value in series [2] (setting [3]) worked out at 8.83 min; in series [2] (setting [4]), 8.58 min.
The compound `CCCCC(CC)COC(=O)c1ccc(N(C)C)cc1` (stereo not given) registered a collision cross section in series [1] (setting [3]) of 185.61 Å². Also, in series [2] (setting [3]), the “reversed-phase LC retention time” value came to 17.9 min.
The corresponding values for `CCCCC(CC)COC(=O)c1ccc(Nc2nc(Nc3ccc(C(=O)OCC(CC)CCCC)cc3)nc(Nc3ccc(C(=O)OCC(CC)CCCC)cc3)n2)cc1` (stereo not given) are 282.62 Å² and 19.5 min.
`CCCCCCCCSc1nc(Nc2cc(C(C)(C)C)c(O)c(C(C)(C)C)c2)nc(SCCCCCCCC)n1` had a collision cross section in series [1] (setting [3]) of 263.3 Å². For the same compound, the “reversed-phase LC retention time” value in series [2] (setting [3]) was determined as 21 min.
For `CCCN(CCOc1c(Cl)cc(Cl)cc1Cl)C(=O)NC=O`, the collision cross section in series [1] (setting [3]) is given as 174.76 Å². Further, the “reversed-phase LC retention time” value in series [2] (setting [3]) is 15.7 min.
In turn, `CCCNCCOc1c(Cl)cc(Cl)cc1Cl` returned a collision cross section in series [1] (setting [3]) of 162.11 Å². Besides, in series [2] (setting [3]), the “reversed-phase LC retention time” value amounted to 12.1 min.
With `CN(C)c1nc(=O)n(C2CCCCC2)c(=O)n1C`, the collision cross section in series [1] (setting [3]) turned out to be 163.21 Å². Moreover, the “reversed-phase LC retention time” value in series [2] (setting [3]) stood at 11.7 min.
In the case of `CNC(=O)c1cc(Oc2ccc(NC(=O)Nc3ccc(Cl)c(C(F)(F)F)c3)cc2)ccn1`, the collision cross section is 214.28 Å² in series [1] (setting [3]) and 218.21 Å² in series [1] (setting [4]). Further, the “reversed-phase LC retention time” value was 15.8 min in series [2] (setting [3]) and 16.2 min in series [2] (setting [4]).
Take `COCC(=O)N(c1c(C)cccc1C(=O)O)C(C)C(=O)O` (stereo not given): the collision cross section in series [1] (setting [4]) came out at 159.84 Å². For the same compound, in series [2] (setting [4]), the “reversed-phase LC retention time” value amounted to 5.43 min.
Regarding `CO/N=C(/C(=O)O)c1ccccc1CO/N=C(\C(=O)O)c1cccc(C(F)(F)F)c1`, the collision cross section in series [1] (setting [3]) came to 195.58 Å². For the same compound, the “reversed-phase LC retention time” value in series [2] (setting [3]) stood at 13.6 min.
Regarding `CO/N=C(/C(=O)O)c1ccccc1CO/N=C(\C)c1cccc(C(F)(F)F)c1`, the collision cross section in series [1] (setting [3]) came to 186.57 Å². Moreover, in series [2] (setting [3]), the “reversed-phase LC retention time” value came to 15.5 min.
Take `CO/N=C(/C(=O)O)c1ccccc1CO/N=C(/C(=O)O)c1cccc(C(F)(F)F)c1`: the collision cross section in series [1] (setting [3]) was determined as 194.45 Å². Moreover, in series [2] (setting [3]), the “reversed-phase LC retention time” value was determined as 13.1 min.
Compound `NC(=O)c1c(Cl)c(Cl)cc(C(=O)O)c1Cl` returned a collision cross section in series [1] (setting [4]) of 155.56 Å². The “reversed-phase LC retention time” value in series [2] (setting [4]) came to 4.88 min.
In turn, `O=C(O)C1C(C(=O)O)C2(Cl)C(Cl)=C(Cl)C1(Cl)C2(Cl)Cl` (stereo not given) registered a collision cross section in series [1] (setting [4]) of 159.01 Å². The “reversed-phase LC retention time” value in series [2] (setting [4]) was determined as 10.3 min.
In series [1] (setting [4]), `CC(c1ccc(O)cc1)(c1ccc(O)cc1)c1ccc(O)cc1` [1,1,1-Tris(4-hydroxyphenyl)ethane] registered a collision cross section of 183.23 Å². The “reversed-phase LC retention time” value in series [2] (setting [4]) turned out to be 12.4 min.
`O=c1[nH]sc2ccccc12` [1,2-Benzisothiazolinone]: the collision cross section in series [1] (setting [3]) is 125.68 Å²; in series [1] (setting [4]) it was 122.13 Å². Also, the entries for the “reversed-phase LC retention time” value in series [2] (setting [3]) and in series [2] (setting [4]) were 8.77 min and 10.6 min, respectively.
For the compound `Cc1ccccc1N=C(N)Nc1ccccc1C` [1,3-Di-o-tolylguanidine], the values for the collision cross section in series [1] (setting [3]) and in series [1] (setting [4]) were 157.64 Å² and 158.32 Å², respectively. Moreover, the figures for the “reversed-phase LC retention time” value in series [2] (setting [3]) and in series [2] (setting [4]) were 9.72 min and 11 min, respectively.
For the compound `CN1CCN(C)C1=O` [1,3-Dimethyl-2-imidazolidinone], the collision cross section in series [1] (setting [3]) came to 116.95 Å². Further, the “reversed-phase LC retention time” value in series [2] (setting [3]) was found to be 6.07 min.
For `N=C(Nc1ccccc1)Nc1ccccc1` [1,3-Diphenylguanidine], in that order: 150.19 Å² and 8.61 min.
In turn, `O=C(Nc1ccccc1)Nc1ccccc1` [1,3-Diphenylurea] registered a collision cross section in series [1] (setting [3]) of 148.26 Å². Also, the “reversed-phase LC retention time” value in series [2] (setting [3]) came out at 12.4 min.
